This is an account of results in ChEMBL document CHEMBL2321731, “Structure-Based Design of Irreversible Human KAT II Inhibitors: Discovery of New Potency-Enhancing Interactions” (ACS Med Chem Lett, 2013).

Series [1] concerns Kynurenine/alpha-aminoadipate aminotransferase, mitochondrial (Homo sapiens), Q8N5Z0 [K240S,F241G]. The series is described as follows: Binding affinity to C-terminal hexa histidine tagged full length human KAT2 K240S/F241G mutant harboring C-terminal thrombin cleavage site at 1 mM after 2 hrs by X-ray crystallography in presence of 2 mM PLP.
Chain of Kynurenine/alpha-aminoadipate aminotransferase, mitochondrial (Homo sapiens), Q8N5Z0 [K240S,F241G] (Q8N5Z0 whole entry K240S/F241G): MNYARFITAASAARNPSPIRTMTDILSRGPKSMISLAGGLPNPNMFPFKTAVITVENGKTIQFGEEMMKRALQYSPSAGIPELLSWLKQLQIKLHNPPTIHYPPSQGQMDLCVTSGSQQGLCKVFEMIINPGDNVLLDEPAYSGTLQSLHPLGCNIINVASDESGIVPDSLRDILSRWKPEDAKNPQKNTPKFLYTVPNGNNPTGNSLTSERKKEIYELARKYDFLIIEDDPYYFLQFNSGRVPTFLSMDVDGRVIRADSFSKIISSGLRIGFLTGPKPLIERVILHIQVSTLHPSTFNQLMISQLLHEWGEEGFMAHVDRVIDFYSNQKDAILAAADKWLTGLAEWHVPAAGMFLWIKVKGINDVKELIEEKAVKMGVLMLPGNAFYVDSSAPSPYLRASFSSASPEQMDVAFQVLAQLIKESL
A further series deals with Rattus norvegicus. As to the kind of experiment: Decrease in extracellular KYNA level in Sprague-Dawley rat prefrontal cortex at 10 mg/kg, sc measured for 4 hrs by microdialysis method. Format: functional, organism-based. Also on record: dose 10 mg/kg.
Series [2] deals with Kynurenine/alpha-aminoadipate aminotransferase, mitochondrial (Rattus norvegicus) (UniProt Q64602). The series is described as follows: Ratio of Kinact to Ki for rat KAT2 using L-kynurenine as substrate by SpectraMax plate reader analysis.
Chain of Kynurenine/alpha-aminoadipate aminotransferase, mitochondrial (Rattus norvegicus) (Q64602 30-425 limits assumed): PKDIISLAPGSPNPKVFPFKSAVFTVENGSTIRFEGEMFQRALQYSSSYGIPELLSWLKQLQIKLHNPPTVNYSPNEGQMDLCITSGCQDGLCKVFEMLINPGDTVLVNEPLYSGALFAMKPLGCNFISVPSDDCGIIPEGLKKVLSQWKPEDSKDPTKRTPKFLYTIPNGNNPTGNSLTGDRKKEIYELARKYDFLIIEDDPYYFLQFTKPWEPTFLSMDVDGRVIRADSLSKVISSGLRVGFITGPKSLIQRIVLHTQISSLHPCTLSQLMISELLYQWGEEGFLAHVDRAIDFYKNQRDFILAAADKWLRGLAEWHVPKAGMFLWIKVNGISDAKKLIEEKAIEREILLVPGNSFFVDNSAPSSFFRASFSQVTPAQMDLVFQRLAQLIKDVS
Series [3] in a line: Unbound fraction in Sprague-Dawley rat brain at 10 mg/kg, sc by equilibrium dialysis method. Format: ADME, organism-based. Further details: dose 10 mg/kg, route subcutaneous. A general note: In equilibrium dialysis free small molecules cross a membrane that holds back macromolecules.
Series [4] concerns Brain. As to the kind of experiment: Ratio of hydroxamate fAUC to compound fAUC in Sprague-Dawley rat brain at 10 mg/kg, sc by equilibrium dialysis method. It is filed as ADME, organism-based. Further details: dose 10 mg/kg, route subcutaneous. To be noted: in vivo.
For series [5], the system named is Brain. The series is described as follows: fAUC in Sprague-Dawley rat brain at 10 mg/kg, sc by equilibrium dialysis method. It is filed as ADME, organism-based. Further details: dose 10 mg/kg, route subcutaneous. To be noted: in vivo.
The target in series [6] is Kynurenine--oxoglutarate transaminase 3 (Homo sapiens, UniProt Q6YP21). As to the kind of experiment: Inhibition of human KAT3 using L-kynurenine as substrate measured after 24 hrs by SpectraMax plate reader analysis.
Chain of Kynurenine--oxoglutarate transaminase 3 (Q6YP21 whole entry): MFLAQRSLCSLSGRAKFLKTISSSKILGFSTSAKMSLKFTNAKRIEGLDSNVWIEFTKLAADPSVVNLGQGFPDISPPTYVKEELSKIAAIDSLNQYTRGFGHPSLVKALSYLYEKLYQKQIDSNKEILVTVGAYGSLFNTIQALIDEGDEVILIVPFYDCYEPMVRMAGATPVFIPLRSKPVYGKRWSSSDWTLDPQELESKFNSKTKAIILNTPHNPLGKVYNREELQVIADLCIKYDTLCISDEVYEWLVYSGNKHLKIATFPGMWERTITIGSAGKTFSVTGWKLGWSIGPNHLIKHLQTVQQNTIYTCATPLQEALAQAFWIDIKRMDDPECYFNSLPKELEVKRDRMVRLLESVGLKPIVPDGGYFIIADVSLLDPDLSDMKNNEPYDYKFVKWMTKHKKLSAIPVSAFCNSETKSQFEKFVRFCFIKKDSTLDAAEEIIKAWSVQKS
For series [7], the system named is Brain. As to the kind of experiment: AUC in Sprague-Dawley rat brain at 10 mg/kg, sc by LC-MS/MS analysis. It is filed as ADME, organism-based. Also on record: dose 10 mg/kg, route subcutaneous. To be noted: in vivo.
The target of series [8] is T1, Kynurenine/alpha-aminoadipate aminotransferase, mitochondrial (Homo sapiens, UniProt Q8N5Z0). As to the kind of experiment: Ratio of Kinact to Ki for human KAT2 using L-kynurenine as substrate by SpectraMax plate reader analysis.
Target sequence in this assay (Q8N5Z0 30-425 limits assumed): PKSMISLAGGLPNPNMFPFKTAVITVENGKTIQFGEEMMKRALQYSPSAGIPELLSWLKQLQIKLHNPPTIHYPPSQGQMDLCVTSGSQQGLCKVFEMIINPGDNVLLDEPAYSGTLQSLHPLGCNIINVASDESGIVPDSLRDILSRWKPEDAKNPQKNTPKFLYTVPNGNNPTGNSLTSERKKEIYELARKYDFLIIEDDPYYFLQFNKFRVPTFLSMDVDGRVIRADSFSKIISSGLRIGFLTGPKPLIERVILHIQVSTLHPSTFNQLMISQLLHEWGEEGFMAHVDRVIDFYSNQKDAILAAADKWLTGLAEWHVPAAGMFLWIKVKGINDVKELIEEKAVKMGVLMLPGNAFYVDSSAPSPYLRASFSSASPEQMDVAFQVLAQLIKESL
Series [9] concerns the target T2, Kynurenine--oxoglutarate transaminase 1 (Homo sapiens, UniProt Q16773).
T2 sequence (Q16773 whole entry): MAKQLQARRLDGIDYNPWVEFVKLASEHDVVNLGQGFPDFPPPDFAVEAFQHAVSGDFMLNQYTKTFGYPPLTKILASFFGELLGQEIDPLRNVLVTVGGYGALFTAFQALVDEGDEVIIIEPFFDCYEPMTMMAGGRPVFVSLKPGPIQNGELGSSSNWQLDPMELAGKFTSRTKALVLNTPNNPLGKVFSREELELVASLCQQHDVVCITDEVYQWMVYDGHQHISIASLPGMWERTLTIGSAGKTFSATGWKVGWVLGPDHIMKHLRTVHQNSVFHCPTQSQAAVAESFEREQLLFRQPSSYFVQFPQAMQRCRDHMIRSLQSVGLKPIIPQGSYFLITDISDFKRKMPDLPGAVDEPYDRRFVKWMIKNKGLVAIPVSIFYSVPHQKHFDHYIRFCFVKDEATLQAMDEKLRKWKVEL
As to the kind of experiment: Inhibition of human KAT1 using L-kynurenine as substrate measured after 16 hrs by SpectraMax plate reader analysis.

Series [10] deals with T1, Kynurenine/alpha-aminoadipate aminotransferase, mitochondrial. As to the kind of experiment: Irreversible inhibition of human KAT2 using L-kynurenine as substrate measured every 5 mins over 16 hrs by SpectraMax plate reader analysis.
Series [11] shares this target. The series is described as follows: Inhibition of human KAT2 using L-kynurenine as substrate measured after 15-20 hrs by SpectraMax plate reader analysis.
Target sequence in this assay (Q8N5Z0 whole entry): as the sequence (Q8N5Z0 whole entry K240S/F241G) above, with S240K, G241F counted along it

Activity calls are given as the source filed them. No cut-off for these calls is given here.

The fraction unbound is free concentration divided by total concentration. For orientation: IC50 means the concentration that inhibits the measured activity by half. Low readings indicate inhibition by little substance, high ones a need for much substance.

As for `N[C@H]1Cc2cc(Oc3ccccc3)ccc2N(O)C1=O`, the result in [1] was Active. Besides, in the series with Rattus norvegicus, the inhibition result is “Active”. The Ratio in series [2] is 9070; in the series on Brain [4], 9; in series [8], 26800. In series [3], this compound came in with a fraction unbound of 0.0099. In addition, in the series on Brain [5], the fAUC came out at 65 ng·h/g. In addition, the IC50 in series [6] came out at 1.23 µM; in series [9], 2.04 µM; in series [11], 0.023 µM. In the series on Brain [7], this compound returned an AUC of 6602 ng·h/g. This compound registered a Ki in [10] of 0.0071 µM. Further, the Kinact in series [10] was found to be 0.0108 min⁻¹.
With `COc1ccc2c(c1)N(O)C(=O)[C@@H](N)C2`, the result in series [1] was Active. Further, the results for the Ratio in series [2] and in series [8] were 1840 and 31700, respectively. Moreover, the IC50 was 6.4 µM in series [6] and 15.3 µM in series [9]. Besides, in series [10], the Ki stood at 0.0077 µM. In series [10], this compound showed a Kinact of 0.0137 min⁻¹.
Consider `N[C@H]1Cc2ccccc2N(O)C1=O`, for which, in series [1], the outcome was Active. Also, in the series on Rattus norvegicus, the inhibition result is “Active”. For the same compound, the values for the Ratio in series [2] and in series [8] were 573 and 18500, respectively. Moreover, the fraction unbound in [3] is 0.393. For the same compound, the fAUC with Brain [5] was 584 ng·h/g. Besides, the IC50 in [6] turned out to be 9.04 µM; in series [9] it was 30.4 µM. In the series on Brain [7], this compound had an AUC of 1486 ng·h/g. This compound showed a Ki in series [10] of 0.0142 µM. Also, the Kinact in series [10] is 0.0156 min⁻¹.
